Values after ≈ are worked out from the molar mass of the structure shown.
Tests used:
Candida albicans [1] = test: Antifungal activity against Candida albicans SP3931 assessed as inhibition of fungal growth incubated for 48 hrs; format: functional
Candida albicans [2] = test: Antifungal activity against Candida albicans 17546 assessed as inhibition of fungal growth incubated for 48 hrs; format: functional
Candida albicans [3] = test: Antifungal activity against Candida albicans SP3876 assessed as inhibition of fungal growth incubated for 48 hrs; format: functional
Candida albicans [4] = test: Antifungal activity against Candida albicans SP3902 assessed as inhibition of fungal growth incubated for 48 hrs; format: functional
Candida parapsilosis = test: Antifungal activity against Candida parapsilosis CGMCC 2.3989 assessed as inhibition of fungal growth incubated for 48 hrs; format: functional; details: Lodderomyces parapsilosis
Candida tropicalis = test: Antifungal activity against Candida tropicalis CGMCC 2.1975 assessed as inhibition of fungal growth incubated for 48 hrs; format: functional
Candida albicans [5] = test: Antifungal activity against Candida albicans 14936 assessed as inhibition of fungal growth incubated for 48 hrs; format: functional
Candida albicans [6] = test: Antifungal activity against Candida albicans 56452 assessed as inhibition of fungal growth incubated for 48 hrs; format: functional
Candida albicans [7] = test: Antifungal activity against Fluconazole-resistant Candida albicans 58288 assessed as inhibition of fungal growth incubated for 48 hrs; format: functional
Candida albicans [8] = test: Antifungal activity against Candida albicans SP3903 assessed as inhibition of fungal growth incubated for 48 hrs; format: functional
Candida albicans [9] = test: Antifungal activity against Fluconazole-resistant Candida albicans 56214 assessed as inhibition of fungal growth incubated for 48 hrs; format: functional
Candida albicans [10] = test: Antifungal activity against Candida albicans CGMCC 2.2086 assessed as inhibition of fungal growth incubated for 48 hrs; format: functional
[11] = Stability of the compound in CaCl2 assessed as change in secondary structure by CD spectra analysis; format: physicochemical
[12] = Stability of the compound in NaCl assessed as change in secondary structure by CD spectra analysis; format: physicochemical
Candida albicans [13] = test: Antifungal activity against Candida albicans CGMCC 2.2086 assessed as inhibition of fungal growth incubated for 48 hrs in presence of CaCl2; format: functional
[14] = Stability of the compound in ZnCl2 assessed as change in secondary structure by CD spectra analysis; format: physicochemical
[15] = Stability of the compound in KCl assessed as change in secondary structure by CD spectra analysis; format: physicochemical
Candida albicans [16] = test: Antifungal activity against Candida albicans CGMCC 2.2086 assessed as inhibition of fungal growth incubated for 48 hrs in presence of MgCl2; format: functional
Candida albicans [17] = test: Antifungal activity against Candida albicans CGMCC 2.2086 assessed as inhibition of fungal growth incubated for 48 hrs in presence of NaCl; format: functional
[18] = Hemolytic activity in human red blood cells assessed as hemolysis rate at 512 uM incubated for 1 hr relative to control; format: toxicity, cell-based, Erythrocyte; details: read-out: Activity
[19] = Stability of the compound in NH4Cl assessed as change in secondary structure by CD spectra analysis; format: physicochemical
Candida albicans [20] = test: Antifungal activity against Candida albicans CGMCC 2.2086 assessed as inhibition of fungal growth incubated for 48 hrs in presence of ZnCl2; format: functional
[21] = Hemolytic activity in human red blood cells assessed as hemolysis incubated for 1 hr; format: toxicity, cell-based, Erythrocyte
[22] = Stability of the compound in MgCl2 assessed as change in secondary structure by CD spectra analysis; format: physicochemical
Candida albicans [23] = test: Antifungal activity against Candida albicans CGMCC 2.2086 assessed as inhibition of fungal growth incubated for 48 hrs in presence of FeCl3; format: functional
[24] = Stability of the compound in FeCl3 assessed as change in secondary structure by CD spectra analysis; format: physicochemical
Candida albicans [25] = test: Antifungal activity against Candida albicans CGMCC 2.2086 assessed as inhibition of fungal growth incubated for 48 hrs in presence of NH4Cl; format: functional
Candida albicans [26] = test: Antifungal activity against Candida albicans CGMCC 2.2086 assessed as inhibition of fungal growth incubated for 48 hrs in presence of KCl; format: functional

SMILES	MIC95 (Candida albicans [1]) [µM]	MIC95 (Candida albicans [2]) [µM]	MIC95 (Candida albicans [3]) [µM]	MIC95 (Candida albicans [4]) [µM]	MIC95 (Candida parapsilosis) [µM]	MIC95 (Candida tropicalis) [µM]	MIC95 (Candida albicans [5]) [µM]	MIC95 (Candida albicans [6]) [µM]	MIC95 (Candida albicans [7]) [µM]	MIC95 (Candida albicans [8]) [µM]	MIC95 (Candida albicans [9]) [µM]	MIC95 (Candida albicans [10]) [µM]	Stability [11]	Stability [12]	MIC95 (Candida albicans [13]) [µM]	Stability [14]	Stability [15]	MIC95 (Candida albicans [16]) [µM]	MIC95 (Candida albicans [17]) [µM]	hemolysis at 1 h, 512 µM [18] [%]	further results
CC(=O)N1CCN(c2ccc(OCC3COC(Cn4ccnc4)(c4ccc(Cl)cc4Cl)O3)cc2)CC1 (stereo not drawn) [KETOCONAZOLE]	4 (≈ 2.13 µg/mL)	2 (≈ 1.06 µg/mL)	16 (≈ 8.5 µg/mL)	2 (≈ 1.06 µg/mL)	4 (≈ 2.13 µg/mL)	2 (≈ 1.06 µg/mL)	4 (≈ 2.13 µg/mL)	1 (≈ 0.531 µg/mL)	> 64	4 (≈ 2.13 µg/mL)	> 64	2 (≈ 1.06 µg/mL)	–	–	–	–	–	–	–	–	–
CC[C@H](C)[C@H](N)C(=O)N[C@H](C(=O)N[C@H](CCCNC(=N)N)C(=O)N[C@@H](CCCNC(=N)N)C(=O)N[C@@H](Cc1c[nH]cn1)C(=O)N[C@H](C(=O)N[C@H](C(=O)N[C@H](C(=O)N[C@H](C(=O)N[C@H](CCCNC(=N)N)C(=O)N[C@@H](CCCNC(=N)N)C(=O)N[C@@H](Cc1c[nH]cn1)C(=O)N[C@H](C(=O)N[C@H](C(N)=O)[C@@H](C)CC)[C@@H](C)CC)[C@@H](C)CC)[C@@H](C)CC)[C@@H](C)CC)[C@@H](C)CC)[C@@H](C)CC	16 (≈ 29.1 µg/mL)	64 (≈ 117 µg/mL)	32 (≈ 58.3 µg/mL)	8 (≈ 14.6 µg/mL)	32 (≈ 58.3 µg/mL)	2 (≈ 3.64 µg/mL)	32 (≈ 58.3 µg/mL)	32 (≈ 58.3 µg/mL)	32 (≈ 58.3 µg/mL)	64 (≈ 117 µg/mL)	64 (≈ 117 µg/mL)	16 (≈ 29.1 µg/mL)	Stable	Unstable	> 64	Stable	Stable	64	> 64	1.84	Stability [19]: Stable; MIC95 (Candida albicans [20]): 64 µM; HC50 at 1 h [21]: > 512 µM; Stability [22]: Stable; MIC95 (Candida albicans [23]): 64 µM; Stability [24]: Stable; MIC95 (Candida albicans [25]): 32 µM; MIC95 (Candida albicans [26]): 32 µM
CC[C@H](C)[C@H](N)C(=O)N[C@H](C(=O)N[C@H](CCCNC(=N)N)C(=O)N[C@@H](CCCNC(=N)N)C(=O)N[C@@H](Cc1c[nH]cn1)C(=O)N[C@H](C(=O)N[C@H](C(N)=O)[C@@H](C)CC)[C@@H](C)CC)[C@@H](C)CC	> 64	> 64	> 64	64 (≈ 58.8 µg/mL)	> 64	64 (≈ 58.8 µg/mL)	> 64	> 64	> 64	> 64	> 64	> 64	Stable	Unstable	> 64	Stable	Stable	> 64	> 64	-1.57	Stability [19]: Stable; MIC95 (Candida albicans [20]): > 64 µM; HC50 at 1 h [21]: > 512 µM; Stability [22]: Stable; MIC95 (Candida albicans [23]): > 64 µM; Stability [24]: Stable; MIC95 (Candida albicans [25]): > 64 µM; MIC95 (Candida albicans [26]): > 64 µM

Source: ChEMBL document CHEMBL6134779, “Design of Proteolytic-Resistant Antifungal Peptides by Utilizing Minimum d-Amino Acid Ratios” (J Med Chem, 2024)
